Tests used:
[1] = biological target: Receptor-interacting serine/threonine-protein kinase 1 (Homo sapiens) (UniProt Q13546)
[2] = biological target: Mitogen-activated protein kinase kinase kinase kinase 2 (Homo sapiens) (UniProt Q12851)
[3] = biological target: Misshapen-like kinase 1 (Homo sapiens) (UniProt Q8N4C8)
[4] = system: Tyrosine-protein kinase ABL1 (Homo sapiens), P00519 [T315I]
[5] = biological target: Mitogen-activated protein kinase kinase kinase kinase 4 (Homo sapiens) (UniProt O95819)
[6] = system: Mast/stem cell growth factor receptor Kit (Homo sapiens), P10721 [V559D,V654A]
[7] = biological target: Serine/threonine-protein kinase Nek6 (Homo sapiens) (UniProt Q9HC98)
Chain of Serine/threonine-protein kinase Nek6 (Homo sapiens) (Q9HC98 whole entry): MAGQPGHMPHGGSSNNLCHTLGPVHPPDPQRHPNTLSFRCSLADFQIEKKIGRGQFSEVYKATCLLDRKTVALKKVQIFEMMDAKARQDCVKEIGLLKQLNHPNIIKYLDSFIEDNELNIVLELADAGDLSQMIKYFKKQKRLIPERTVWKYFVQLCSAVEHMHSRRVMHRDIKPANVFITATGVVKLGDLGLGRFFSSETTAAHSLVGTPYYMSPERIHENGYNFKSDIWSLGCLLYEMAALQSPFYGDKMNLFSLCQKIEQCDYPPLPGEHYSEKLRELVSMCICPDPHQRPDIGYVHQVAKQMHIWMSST

[8] = biological target: Testis-specific serine/threonine-protein kinase 3 (Homo sapiens) (UniProt Q96PN8)
[9] = biological target: Mitogen-activated protein kinase kinase kinase 2 (Homo sapiens) (UniProt Q9Y2U5)
Chain of Mitogen-activated protein kinase kinase kinase 2 (Homo sapiens) (Q9Y2U5 whole entry): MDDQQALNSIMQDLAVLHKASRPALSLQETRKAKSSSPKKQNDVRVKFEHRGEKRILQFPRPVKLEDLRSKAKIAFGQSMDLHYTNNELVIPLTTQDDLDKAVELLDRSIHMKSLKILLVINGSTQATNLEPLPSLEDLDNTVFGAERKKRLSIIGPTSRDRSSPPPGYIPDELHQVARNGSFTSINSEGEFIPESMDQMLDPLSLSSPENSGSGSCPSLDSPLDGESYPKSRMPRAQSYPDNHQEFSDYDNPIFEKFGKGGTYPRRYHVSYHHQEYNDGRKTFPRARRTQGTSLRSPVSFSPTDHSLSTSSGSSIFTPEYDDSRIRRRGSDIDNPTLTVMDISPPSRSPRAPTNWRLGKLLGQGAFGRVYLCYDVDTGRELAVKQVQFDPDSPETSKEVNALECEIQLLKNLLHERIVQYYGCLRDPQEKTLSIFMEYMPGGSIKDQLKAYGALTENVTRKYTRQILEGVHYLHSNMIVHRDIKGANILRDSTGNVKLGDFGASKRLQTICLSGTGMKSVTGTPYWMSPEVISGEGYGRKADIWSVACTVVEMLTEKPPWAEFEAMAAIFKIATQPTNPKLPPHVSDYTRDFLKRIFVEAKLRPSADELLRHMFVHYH

[10] = biological target: Tyrosine-protein kinase CSK (Homo sapiens) (UniProt P41240)
[11] = biological target: Serine/threonine-protein kinase ULK3 (Homo sapiens) (UniProt Q6PHR2)
Chain of Serine/threonine-protein kinase ULK3 (Homo sapiens) (Q6PHR2 whole entry): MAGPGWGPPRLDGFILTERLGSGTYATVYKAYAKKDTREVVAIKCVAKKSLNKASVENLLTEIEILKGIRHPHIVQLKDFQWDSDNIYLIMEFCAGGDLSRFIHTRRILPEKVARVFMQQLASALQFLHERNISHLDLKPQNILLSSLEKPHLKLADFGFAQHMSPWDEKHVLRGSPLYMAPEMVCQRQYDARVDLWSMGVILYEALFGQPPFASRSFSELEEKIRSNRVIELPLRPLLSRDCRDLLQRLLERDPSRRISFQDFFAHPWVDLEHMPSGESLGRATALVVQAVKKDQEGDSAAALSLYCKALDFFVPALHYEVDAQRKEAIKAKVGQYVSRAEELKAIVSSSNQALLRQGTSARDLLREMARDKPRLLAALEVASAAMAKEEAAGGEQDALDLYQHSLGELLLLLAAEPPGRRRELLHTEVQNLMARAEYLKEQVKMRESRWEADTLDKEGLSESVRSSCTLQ

[12] = biological target: Serine/threonine-protein kinase PAK 3 (Homo sapiens) (UniProt O75914)
[13] = system: Tyrosine-protein kinase ABL1 (Homo sapiens), P00519 [H396P]
[14] = system: Epidermal growth factor receptor (Homo sapiens), P00533 [UNDEFINED MUTATION]
[15] = biological target: Atypical kinase COQ8A, mitochondrial (Homo sapiens) (UniProt Q8NI60)
[16] = biological target: Serine/threonine-protein kinase WNK2 (Homo sapiens) (UniProt Q9Y3S1)
[17] = biological target: SRSF protein kinase 1 (Homo sapiens) (UniProt Q96SB4)
[18] = biological target: Tyrosine-protein kinase Fer (Homo sapiens) (UniProt P16591)
[19] = biological target: Phosphorylase b kinase regulatory subunit alpha, liver isoform (Homo sapiens) (UniProt P46019)
[20] = biological target: Serine/threonine-protein kinase 32A (Homo sapiens) (UniProt Q8WU08)
[21] = biological target: Serine/threonine-protein kinase 3 (Homo sapiens) (UniProt Q13188)
[22] = biological target: Calcium/calmodulin-dependent protein kinase type 1G (Homo sapiens) (UniProt Q96NX5)
Chain of Calcium/calmodulin-dependent protein kinase type 1G (Homo sapiens) (Q96NX5 whole entry): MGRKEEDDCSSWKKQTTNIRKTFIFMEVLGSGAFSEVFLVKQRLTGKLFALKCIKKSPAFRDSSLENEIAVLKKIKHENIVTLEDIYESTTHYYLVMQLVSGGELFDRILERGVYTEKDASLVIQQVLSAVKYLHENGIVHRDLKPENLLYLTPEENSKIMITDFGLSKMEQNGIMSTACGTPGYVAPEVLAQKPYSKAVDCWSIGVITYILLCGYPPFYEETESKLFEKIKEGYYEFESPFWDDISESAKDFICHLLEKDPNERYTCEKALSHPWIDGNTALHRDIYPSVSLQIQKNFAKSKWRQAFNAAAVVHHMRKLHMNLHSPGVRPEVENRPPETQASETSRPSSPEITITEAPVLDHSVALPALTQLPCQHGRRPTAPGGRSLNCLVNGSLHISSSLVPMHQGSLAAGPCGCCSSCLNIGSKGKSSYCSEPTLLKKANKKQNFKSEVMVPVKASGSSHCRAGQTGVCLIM

[23] = biological target: Cyclin-dependent kinase-like 3 (Homo sapiens) (UniProt Q8IVW4)
[24] = biological target: Inhibitor of nuclear factor kappa-B kinase subunit beta (Homo sapiens) (UniProt O14920)
[25] = biological target: Serine/threonine-protein kinase pim-3 (Homo sapiens) (UniProt Q86V86)
[26] = biological target: Serine/threonine-protein kinase 4 (Homo sapiens) (UniProt Q13043)
[27] = biological target: Ephrin type-A receptor 2 (Homo sapiens) (UniProt P29317)
Chain of Ephrin type-A receptor 2 (Homo sapiens) (P29317 whole entry): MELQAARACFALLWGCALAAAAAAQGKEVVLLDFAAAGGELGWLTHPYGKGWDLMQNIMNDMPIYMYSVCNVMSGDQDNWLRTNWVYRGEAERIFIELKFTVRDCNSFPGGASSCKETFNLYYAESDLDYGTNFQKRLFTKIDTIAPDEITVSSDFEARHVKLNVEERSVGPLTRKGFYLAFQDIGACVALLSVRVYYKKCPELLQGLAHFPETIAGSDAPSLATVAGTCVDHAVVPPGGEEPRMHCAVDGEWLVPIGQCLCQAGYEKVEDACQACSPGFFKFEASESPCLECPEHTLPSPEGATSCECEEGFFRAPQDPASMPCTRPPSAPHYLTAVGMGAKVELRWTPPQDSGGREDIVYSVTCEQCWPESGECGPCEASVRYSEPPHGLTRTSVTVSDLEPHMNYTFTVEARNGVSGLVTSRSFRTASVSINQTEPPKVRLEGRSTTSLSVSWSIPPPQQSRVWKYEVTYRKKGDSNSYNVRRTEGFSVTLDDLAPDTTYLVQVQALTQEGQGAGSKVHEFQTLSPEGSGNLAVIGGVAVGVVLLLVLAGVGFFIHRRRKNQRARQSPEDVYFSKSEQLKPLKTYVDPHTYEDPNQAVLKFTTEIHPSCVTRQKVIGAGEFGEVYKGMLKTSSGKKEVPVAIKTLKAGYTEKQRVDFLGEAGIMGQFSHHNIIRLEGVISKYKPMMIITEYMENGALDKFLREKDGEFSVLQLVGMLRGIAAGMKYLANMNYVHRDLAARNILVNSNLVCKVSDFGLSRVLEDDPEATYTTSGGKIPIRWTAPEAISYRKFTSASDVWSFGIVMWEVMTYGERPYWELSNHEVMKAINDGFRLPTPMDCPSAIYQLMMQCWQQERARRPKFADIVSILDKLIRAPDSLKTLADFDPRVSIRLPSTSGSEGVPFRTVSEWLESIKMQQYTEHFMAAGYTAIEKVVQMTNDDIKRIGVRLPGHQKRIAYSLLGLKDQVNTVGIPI

[28] = biological target: Ephrin type-B receptor 2 (Homo sapiens) (UniProt P29323)
Chain of Ephrin type-B receptor 2 (Homo sapiens) (P29323 whole entry): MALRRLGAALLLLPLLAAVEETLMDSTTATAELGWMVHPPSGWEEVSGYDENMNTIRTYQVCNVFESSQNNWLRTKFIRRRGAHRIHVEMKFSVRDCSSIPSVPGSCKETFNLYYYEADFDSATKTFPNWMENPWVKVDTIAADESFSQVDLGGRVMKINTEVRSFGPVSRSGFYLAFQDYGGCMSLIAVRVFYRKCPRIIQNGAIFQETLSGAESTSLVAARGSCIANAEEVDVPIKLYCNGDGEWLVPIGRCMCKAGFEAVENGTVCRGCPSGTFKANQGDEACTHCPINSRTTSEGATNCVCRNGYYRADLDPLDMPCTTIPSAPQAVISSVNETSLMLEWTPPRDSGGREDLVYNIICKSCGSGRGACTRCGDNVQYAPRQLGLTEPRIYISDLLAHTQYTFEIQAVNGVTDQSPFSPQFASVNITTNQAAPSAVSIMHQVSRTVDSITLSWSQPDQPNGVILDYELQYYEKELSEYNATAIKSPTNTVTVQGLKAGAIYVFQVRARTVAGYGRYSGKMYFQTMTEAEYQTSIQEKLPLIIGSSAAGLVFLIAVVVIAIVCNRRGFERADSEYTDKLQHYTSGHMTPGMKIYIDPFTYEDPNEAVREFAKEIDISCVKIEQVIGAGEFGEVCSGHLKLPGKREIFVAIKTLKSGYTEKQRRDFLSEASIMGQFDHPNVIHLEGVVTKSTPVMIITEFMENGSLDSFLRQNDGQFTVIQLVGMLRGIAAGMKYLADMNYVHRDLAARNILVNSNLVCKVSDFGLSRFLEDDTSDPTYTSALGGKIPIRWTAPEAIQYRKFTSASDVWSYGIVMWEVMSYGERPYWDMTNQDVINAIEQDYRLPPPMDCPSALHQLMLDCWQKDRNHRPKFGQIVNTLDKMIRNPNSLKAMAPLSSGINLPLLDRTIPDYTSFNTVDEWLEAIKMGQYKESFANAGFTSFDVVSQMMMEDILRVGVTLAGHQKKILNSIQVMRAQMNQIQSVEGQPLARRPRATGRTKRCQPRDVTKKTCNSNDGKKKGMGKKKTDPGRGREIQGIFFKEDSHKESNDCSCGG

[29] = biological target: Serine/threonine-protein kinase Chk2 (Homo sapiens) (UniProt O96017)
[30] = biological target: Calcium/calmodulin-dependent protein kinase type II subunit delta (Homo sapiens) (UniProt Q13557)
[31] = biological target: Platelet-derived growth factor receptor alpha (Homo sapiens) (UniProt P16234)
[32] = biological target: Sodium-dependent dopamine transporter (Homo sapiens) (UniProt Q01959); conditions: Compound concentration 10.0 uM
Chain of Sodium-dependent dopamine transporter (Homo sapiens) (Q01959 whole entry): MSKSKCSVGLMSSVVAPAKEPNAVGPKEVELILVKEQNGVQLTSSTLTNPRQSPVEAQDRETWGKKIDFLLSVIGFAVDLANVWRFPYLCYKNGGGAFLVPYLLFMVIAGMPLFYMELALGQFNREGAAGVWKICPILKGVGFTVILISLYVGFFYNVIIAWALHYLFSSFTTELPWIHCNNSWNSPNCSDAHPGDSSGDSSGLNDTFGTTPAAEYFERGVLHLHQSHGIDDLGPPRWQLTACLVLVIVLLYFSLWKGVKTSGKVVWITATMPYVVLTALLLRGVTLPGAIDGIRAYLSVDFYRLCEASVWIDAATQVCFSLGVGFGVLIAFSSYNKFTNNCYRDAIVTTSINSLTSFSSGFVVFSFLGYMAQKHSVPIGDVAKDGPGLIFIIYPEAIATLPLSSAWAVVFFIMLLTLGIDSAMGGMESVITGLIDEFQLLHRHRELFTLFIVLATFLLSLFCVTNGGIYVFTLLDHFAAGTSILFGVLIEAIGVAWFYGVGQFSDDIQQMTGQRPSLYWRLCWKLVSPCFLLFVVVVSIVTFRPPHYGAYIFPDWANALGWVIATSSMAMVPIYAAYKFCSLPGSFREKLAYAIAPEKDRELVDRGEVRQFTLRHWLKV

[33] = biological target: Cyclin-dependent kinase 2 (Homo sapiens, UniProt P24941)
[34] = biological target: Proto-oncogene tyrosine-protein kinase ROS (Homo sapiens) (UniProt P08922)
[35] = biological target: Mast/stem cell growth factor receptor Kit (Homo sapiens) (UniProt P10721)
[36] = biological target: Ribosomal protein S6 kinase alpha-1 (Homo sapiens) (UniProt Q15418)
[37] = biological target: NUAK family SNF1-like kinase 2 (Homo sapiens) (UniProt Q9H093)
[38] = biological target: Casein kinase I isoform alpha (Homo sapiens) (UniProt P48729)
Chain of Casein kinase I isoform alpha (Homo sapiens) (P48729 2-337 limits assumed): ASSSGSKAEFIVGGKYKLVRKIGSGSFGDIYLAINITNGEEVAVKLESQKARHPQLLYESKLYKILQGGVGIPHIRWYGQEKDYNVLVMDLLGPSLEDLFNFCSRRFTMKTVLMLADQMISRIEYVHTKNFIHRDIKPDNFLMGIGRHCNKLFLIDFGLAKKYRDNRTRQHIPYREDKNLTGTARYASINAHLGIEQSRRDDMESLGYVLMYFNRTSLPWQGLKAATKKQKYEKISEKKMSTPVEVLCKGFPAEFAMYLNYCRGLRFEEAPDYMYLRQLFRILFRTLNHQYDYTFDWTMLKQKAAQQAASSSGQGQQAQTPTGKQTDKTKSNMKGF

[39] = biological target: Phosphatidylinositol 4-kinase beta (Homo sapiens) (UniProt Q9UBF8)
[40] = biological target: Serine/threonine-protein kinase TBK1 (Homo sapiens) (UniProt Q9UHD2)
[41] = biological target: Muscarinic acetylcholine receptor M2 (Homo sapiens) (UniProt P08172); conditions: Compound concentration 10.0 uM
[42] = biological target: Discoidin domain-containing receptor 2 (Homo sapiens) (UniProt Q16832)
[43] = biological target: Cyclin-dependent kinase-like 2 (Homo sapiens) (UniProt Q92772)
[44] = system: Phosphatidylinositol 4,5-bisphosphate 3-kinase catalytic subunit alpha isoform (Homo sapiens), P42336 [I800L]
[45] = biological target: Ephrin type-A receptor 8 (Homo sapiens) (UniProt P29322)
[46] = Compound concentration 1000.0 nM
[47] = Compound concentration 100.0 nM

SMILES: C[C@H](NC(=O)Nc1cc2[nH]ncc2c(CO)n1)c1ccccn1 [ERKi-NC]
- residual activity [1, 46]: 100%
- residual activity [2, 46]: 100%
- residual activity [3, 46]: 77.7%
- residual activity [4, 46]: 100%
- residual activity [5, 46]: 100%
- residual activity [6, 46]: 100%
- residual activity [7, 46]: 100%
- residual activity [8, 46]: 100%
- residual activity [9, 46]: 98.4%
- residual activity [10, 46]: 100%
- residual activity [11, 46]: 98.9%
- residual activity [12, 46]: 100%
- residual activity [13, 46]: 72.5%
- residual activity [14, 46]: 100%
- residual activity [15, 46]: 96.3%
- residual activity [16, 46]: 90.7%
- residual activity [17, 46]: 100%
- residual activity [18, 46]: 88.8%
- residual activity [19, 46]: 100%
- residual activity [20, 46]: 100%
- residual activity [21, 46]: 82.2%
- residual activity [22, 46]: 100%
- residual activity [23, 46]: 100%
- residual activity [24, 46]: 100%
- residual activity [25, 46]: 100%
- residual activity [26, 46]: 100%
- residual activity [27, 46]: 100%
- residual activity [28, 46]: 100%
- residual activity [29, 46]: 95.9%
- residual activity [30, 46]: 81%
- residual activity [31, 46]: 100%
- inhibition [32]: 4.79%
- residual activity [33, 46]: 100%
- residual activity [34, 46]: 85%
- residual activity [35, 46]: 96.9%
- residual activity [36, 46]: 90.3%
- residual activity [37, 46]: 100%
- residual activity [38, 46]: 56.5%
- residual activity [39, 46]: 100%
- residual activity [40, 46]: 48.3%
- inhibition [41]: 14.2%
- residual activity [42, 46]: 94.3%
- residual activity [43, 46]: 100%
- residual activity [44, 46]: 99.5%
- residual activity [45, 46]: 100%

SMILES: C[C@@H](NC(=O)Nc1cc2[nH]ncc2c(CO)n1)c1ccccc1 [ERKi]
- residual activity [1, 47]: 100%
- residual activity [2, 47]: 78.3%
- residual activity [3, 47]: 90.1%
- residual activity [4, 47]: 100%
- residual activity [5, 47]: 88.5%
- residual activity [6, 47]: 96.6%
- residual activity [7, 47]: 98.9%
- residual activity [8, 47]: 91.1%
- residual activity [9, 47]: 87.3%
- residual activity [10, 47]: 77.1%
- residual activity [11, 47]: 68.1%
- residual activity [12, 47]: 100%
- residual activity [13, 47]: 94.6%
- residual activity [14, 47]: 94.6%
- residual activity [15, 47]: 89.6%
- residual activity [16, 47]: 100%
- residual activity [17, 47]: 85.5%
- residual activity [18, 47]: 100%
- residual activity [19, 47]: 78.8%
- residual activity [20, 47]: 100%
- residual activity [21, 47]: 90.2%
- residual activity [22, 47]: 70.6%
- residual activity [23, 47]: 95.6%
- residual activity [24, 47]: 100%
- residual activity [25, 47]: 82.9%
- residual activity [26, 47]: 100%
- residual activity [27, 47]: 100%
- residual activity [28, 47]: 83.3%
- residual activity [29, 47]: 100%
- residual activity [30, 47]: 77.7%
- residual activity [31, 47]: 87.3%
- inhibition [32]: 46.5%
- residual activity [33, 47]: 75.7%
- residual activity [34, 47]: 100%
- residual activity [35, 47]: 92.5%
- residual activity [36, 47]: 89.9%
- residual activity [37, 47]: 76%
- residual activity [38, 47]: 84.6%
- residual activity [39, 47]: 82.1%
- residual activity [40, 47]: 84.8%
- inhibition [41]: -3.22%
- residual activity [42, 47]: 98.5%
- residual activity [43, 47]: 81%
- residual activity [44, 47]: 66%
- residual activity [45, 47]: 89.8%

— ChEMBL document CHEMBL4507286 (2021)
